11 molecules from US20250034210A1, “DLL3 TARGETING PEPTIDES AND CONSTRUCTS THEREOF” (MARIANA ONCOLOGY INC., priority 2023, published 2025) can be followed below.

Broadly, the Kd is a measure of binding affinity in units of concentration. Read a high Kd as weaker binding.

SMILES strings stand for the structures. Where a SMILES comes first, the peptide text is derived from it. Bridges are numbered along the chain shown (N, C = ends). [ ]: non-standard residue; d: D form. The star is where a group is joined. ξ: configuration not given here. DOTA = O=C(O)CN1CCN(CC(=O)O)CCN(CC(=O)*)CCN(CC(=O)O)CC1; Trp(5-F) = N[C@@H](Cc1c[nH]c2ccc(F)cc12)C(=O)O; Phe(2-CF3) = N[C@@H](Cc1ccccc1C(F)(F)F)C(=O)O; Pro(trans-4-F) = O=C(O)[C@@H]1C[C@@H](F)CN1; PEG8 = NCCOCCOCCOCCOCCOCCOCCOCCOCCC(=O)O; 1Nal = N[C@@H](Cc1cccc2ccccc12)C(=O)O; cisHyp = O=C(O)[C@@H]1C[C@H](O)CN1; Hyp = O=C(O)[C@@H]1C[C@@H](O)CN1; ξIle = CC[C@H](C)C(N)C(=O)O; Pip = O=C(O)[C@@H]1CCCCN1; Ahx = NCCCCCC(=O)O

In this assay the target is T1, human DLL3 (Homo sapiens, UniProt Q9NYJ7).
T1 construct: biotin (biotinylated)
T1 sequence (Q9NYJ7 27-618): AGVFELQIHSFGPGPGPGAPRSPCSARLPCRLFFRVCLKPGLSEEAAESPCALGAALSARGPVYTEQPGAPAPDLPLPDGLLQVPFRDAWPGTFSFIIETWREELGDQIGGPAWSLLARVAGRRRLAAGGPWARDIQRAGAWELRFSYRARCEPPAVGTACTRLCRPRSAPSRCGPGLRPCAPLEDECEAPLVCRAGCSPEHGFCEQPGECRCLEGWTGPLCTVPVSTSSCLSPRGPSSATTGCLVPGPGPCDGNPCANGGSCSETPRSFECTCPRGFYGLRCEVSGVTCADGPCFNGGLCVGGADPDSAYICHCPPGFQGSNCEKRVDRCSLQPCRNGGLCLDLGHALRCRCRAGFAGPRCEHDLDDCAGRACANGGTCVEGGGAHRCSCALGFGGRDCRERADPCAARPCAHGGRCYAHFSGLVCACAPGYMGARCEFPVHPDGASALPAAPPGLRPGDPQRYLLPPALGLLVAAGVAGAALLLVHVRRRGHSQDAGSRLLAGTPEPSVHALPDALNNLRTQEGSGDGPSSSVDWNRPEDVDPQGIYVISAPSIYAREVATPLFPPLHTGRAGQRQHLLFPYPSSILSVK
Kind of assay: Affinity determination by Surface Plasmon Resonance (SPR), biotinylated human DLL3 immobilized on streptavidin sensor chip. Conditions: 25° C., Biacore, 1:1 binding model. The protocol: Affinity Determination by Surface Plasmon Resonance (SPR). SPR studies were performed on the compounds disclosed herein using the following protocol.
The binding affinity and binding kinetic parameters at 25° C. were determined using Biacore S200 or biacore 8K instrument. Biotinylated target ligand human DLL3 was immobilized on a streptavidin sensor chip. A reference surface was set up for nonspecific binding and refractive index changes. For analysis of the kinetics of interactions, varying concentrations of samples were injected at a flow rate of 100 μL/min using running buffer containing 20 mM phosphate buffer with 2.7 mM KCl, 137 mM NaCl, 0.05% Surfactant P20 and 2% DMSO. Sensorgram curves were fitted with 1:1 binding model, and affinity and kinetic parameters were obtained using Biacore Insight evaluation 4.0. software.
Background: SPR reads the build-up and loss of mass on a sensor chip optically.
`C[C@@H](O)[C@H](NC(=O)[C@H](Cc1c[nH]c2ccccc12)NC(=O)CCCCCNC(=O)CN1CCN(CC(=O)O)CCN(CC(=O)O)CCN(CC(=O)O)CC1)C(=O)N[C@@H](Cc1ccccc1C(F)(F)F)C(=O)N[C@H]1CSSC[C@@H](C(=O)N[C@@H](Cc2c[nH]c3ccccc23)C(=O)N2CCC[C@H]2C(N)=O)NC(=O)[C@H](CC(=O)O)NC(=O)[C@H](Cc2cnc[nH]2)NC(=O)[C@H](Cc2c[nH]c3ccccc23)NC(=O)[C@H](CC(N)=O)NC(=O)[C@H](CC(N)=O)NC1=O` [compound 65, DOTA-Ahx-W-T-(2CF3-F)-C(3)-N-N-W-H-D-C(3)-W-P-CONH2] ({DOTA-Ahx}-WT[Phe(2-CF3)]CNNWHDCWP-NH2; disulfide 4-10): the Kd lay in the range of 0.001 to 0.01 µM.

Regarding `CC[C@H](C)[C@H](NC(=O)[C@@H](NC(=O)[C@H](Cc1c[nH]c2ccccc12)NC(=O)CCCCCNC(=O)CN1CCN(CC(=O)O)CCN(CC(=O)O)CCN(CC(=O)O)CC1)[C@@H](C)O)C(=O)N[C@H]1CSSC[C@@H](C(=O)N[C@@H](Cc2c[nH]c3ccccc23)C(=O)N2CCC[C@H]2C(N)=O)NC(=O)[C@H](CC(=O)O)NC(=O)[C@H](Cc2cnc[nH]2)NC(=O)[C@H](Cc2c[nH]c3ccc(F)cc23)NC(=O)[C@H](CC(N)=O)NC(=O)[C@H](CC(N)=O)NC1=O` [compound 59, DOTA-Ahx-W-T-I-C(3)-N-N-(5Fluoro-W)-H-D-C(3)-W-P-CONH2] ({DOTA-Ahx}-WTICNN[Trp(5-F)]HDCWP-NH2; disulfide 4-10), the Kd was in the range of 0.01 to 0.1 µM.

`CC[C@H](C)[C@H](NC(=O)[C@@H](NC(=O)[C@H](Cc1c[nH]c2ccccc12)NC(=O)[C@@H](CCCCNC(=O)CN1CCN(CC(=O)O)CCN(CC(=O)O)CCN(CC(=O)O)CC1)NC(C)=O)[C@@H](C)O)C(=O)N[C@H]1CSSC[C@@H](C(=O)N[C@@H](Cc2c[nH]c3ccccc23)C(=O)N2CCC[C@H]2C(N)=O)NC(=O)[C@H](CC(=O)O)NC(=O)[C@H](Cc2c[nH]cn2)NC(=O)[C@H](Cc2c[nH]c3ccccc23)NC(=O)[C@H](CC(N)=O)NC(=O)[C@H](CC(N)=O)NC1=O` [compound 73, Ac-D-Lys(DOTA)-W-T-I-C(3)-N-N-W-H-D-C(3)-W-P-CONH2] (Ac-[dK](DOTA)WTICNNWHDCWP-NH2; disulfide 5-11): the Kd was in the range of 0.01 to 0.1 µM.

The molecule `CC[C@H](C)[C@H](NC(=O)[C@@H](NC(=O)[C@H](Cc1c[nH]c2ccccc12)NC(=O)CCCCCNC(=O)CN1CCN(CC(=O)O)CCN(CC(=O)O)CCN(CC(=O)O)CC1)[C@@H](C)O)C(=O)N[C@H]1CSSC[C@@H](C(=O)N[C@@H](Cc2c[nH]c3ccccc23)C(=O)N2CCCC[C@H]2C(N)=O)NC(=O)[C@H](CC(=O)O)NC(=O)[C@H](Cc2cnc[nH]2)NC(=O)[C@H](Cc2c[nH]c3ccccc23)NC(=O)[C@H](CC(N)=O)NC(=O)[C@H](CC(N)=O)NC1=O` [compound 70, DOTA-Ahx-W-T-I-C(3)-N-N-W-H-D-C(3)-W-(Pip)-CONH2] ({DOTA-Ahx}-WTICNNWHDCW[Pip]-NH2; disulfide 4-10) displayed a Kd of 0.01 to 0.1 µM.

`CC[C@H](C)[C@H](NC(=O)[C@@H](NC(=O)[C@H](Cc1c[nH]c2ccccc12)NC(=O)CCOCCOCCOCCOCCOCCOCCOCCOCCNC(=O)CN1CCN(CC(=O)O)CCN(CC(=O)O)CCN(CC(=O)O)CC1)[C@@H](C)O)C(=O)N[C@H]1CSSC[C@@H](C(=O)N[C@@H](Cc2c[nH]c3ccccc23)C(=O)N2CCC[C@H]2C(N)=O)NC(=O)[C@H](CC(=O)O)NC(=O)[C@H](Cc2cnc[nH]2)NC(=O)[C@H](Cc2c[nH]c3ccccc23)NC(=O)[C@H](CC(N)=O)NC(=O)[C@H](CC(N)=O)NC1=O` [compound 20, DOTA-PEG8-W-T-I-C(3)-N-N-W-H-D-C(3)-W-P-CONH2] ({DOTA-PEG8}-WTICNNWHDCWP-NH2; disulfide 4-10) showed an equilibrium dissociation constant (Kd) of 0.01 to 0.1 µM.

The molecule `CC[C@H](C)[C@H](NC(=O)[C@@H](NC(=O)[C@H](Cc1c[nH]c2ccc(F)cc12)NC(=O)CCCCCNC(=O)CN1CCN(CC(=O)O)CCN(CC(=O)O)CCN(CC(=O)O)CC1)[C@@H](C)O)C(=O)N[C@H]1CSSC[C@@H](C(=O)N[C@@H](Cc2c[nH]c3ccccc23)C(=O)N2CCC[C@H]2C(N)=O)NC(=O)[C@H](CC(=O)O)NC(=O)[C@H](Cc2cnc[nH]2)NC(=O)[C@H](Cc2c[nH]c3ccccc23)NC(=O)[C@H](CC(N)=O)NC(=O)[C@H](CC(N)=O)NC1=O` [compound 58, DOTA-Ahx-(5Fluoro-W)-T-I-C(3)-N-N-W-H-D-C(3)-W-P-CONH2] ({DOTA-Ahx}-[Trp(5-F)]TICNNWHDCWP-NH2; disulfide 4-10) had a Kd of 0.001 to 0.01 µM.

Molecule `CC[C@H](C)C(NC(=O)[C@@H](NC(=O)[C@H](Cc1c[nH]c2ccccc12)NC(=O)CCCCCNC(=O)CN1CCN(CC(=O)O)CCN(CC(=O)O)CCN(CC(=O)O)CC1)[C@@H](C)O)C(=O)N[C@H]1CSSC[C@@H](C(=O)N[C@@H](Cc2c[nH]c3ccccc23)C(=O)N2CCC[C@H]2C(N)=O)NC(=O)[C@H](CC(=O)O)NC(=O)[C@H](Cc2cnc[nH]2)NC(=O)[C@H](Cc2cccc3ccccc23)NC(=O)[C@H](CC(N)=O)NC(=O)[C@H](CC(N)=O)NC1=O` (stereo partly drawn) [compound 56, DOTA-Ahx-W-T-I-C(3)-N-N-(1Nal)-H-D-C(3)-W-P-CONH2] ({DOTA-Ahx}-WT[ξIle]CNN[1Nal]HDCWP-NH2; disulfide 4-10) registered a Kd of 0.01 to 0.1 µM.

Molecule `CC[C@H](C)[C@H](NC(=O)[C@@H](NC(=O)[C@H](Cc1c[nH]c2ccccc12)NC(=O)CCCCCNC(=O)CN1CCN(CC(=O)O)CCN(CC(=O)O)CCN(CC(=O)O)CC1)[C@@H](C)O)C(=O)N[C@H]1CSSC[C@@H](C(=O)N[C@@H](Cc2c[nH]c3ccccc23)C(=O)N2C[C@H](F)C[C@H]2C(N)=O)NC(=O)[C@H](CC(=O)O)NC(=O)[C@H](Cc2cnc[nH]2)NC(=O)[C@H](Cc2c[nH]c3ccccc23)NC(=O)[C@H](CC(N)=O)NC(=O)[C@H](CC(N)=O)NC1=O` [compound 66, DOTA-Ahx-W-T-I-C(3)-N-N-W-H-D-C(3)-W-(trans4Fluoro-P)-CONH2] ({DOTA-Ahx}-WTICNNWHDCW[Pro(trans-4-F)]-NH2; disulfide 4-10) had a Kd of 0.001 to 0.01 µM.

Molecule `CC[C@H](C)[C@H](NC(=O)[C@@H](NC(=O)[C@H](Cc1c[nH]c2ccccc12)NC(=O)CCCCCNC(=O)CN1CCN(CC(=O)O)CCN(CC(=O)O)CCN(CC(=O)O)CC1)[C@@H](C)O)C(=O)N[C@H]1CSSC[C@@H](C(=O)N[C@@H](Cc2c[nH]c3ccc(F)cc23)C(=O)N2CCC[C@H]2C(N)=O)NC(=O)[C@H](CC(=O)O)NC(=O)[C@H](Cc2cnc[nH]2)NC(=O)[C@H](Cc2c[nH]c3ccccc23)NC(=O)[C@H](CC(N)=O)NC(=O)[C@H](CC(N)=O)NC1=O` [compound 60, DOTA-Ahx-W-T-I-C(3)-N-N-W-H-D-C(3)-(5Fluoro-W)-P-CONH2] ({DOTA-Ahx}-WTICNNWHDC[Trp(5-F)]P-NH2; disulfide 4-10) displayed a Kd of 0.01 to 0.1 µM.

Consider `CC[C@H](C)[C@H](NC(=O)[C@@H](NC(=O)[C@H](Cc1c[nH]c2ccccc12)NC(=O)CCCCCNC(=O)CN1CCN(CC(=O)O)CCN(CC(=O)O)CCN(CC(=O)O)CC1)[C@@H](C)O)C(=O)N[C@H]1CSSC[C@@H](C(=O)N[C@@H](Cc2c[nH]c3ccccc23)C(=O)N2C[C@H](O)C[C@H]2C(N)=O)NC(=O)[C@H](CC(=O)O)NC(=O)[C@H](Cc2cnc[nH]2)NC(=O)[C@H](Cc2c[nH]c3ccccc23)NC(=O)[C@H](CC(N)=O)NC(=O)[C@H](CC(N)=O)NC1=O` [compound 68, DOTA-Ahx-W-T-I-C(3)-N-N-W-H-D-C(3)-W-(trans4OH-P)-CONH2] ({DOTA-Ahx}-WTICNNWHDCW[Hyp]-NH2; disulfide 4-10), for which the Kd lay in the range of 0.01 to 0.1 µM.

In turn, `CC[C@H](C)[C@H](NC(=O)[C@@H](NC(=O)[C@H](Cc1c[nH]c2ccccc12)NC(=O)CCCCCNC(=O)CN1CCN(CC(=O)O)CCN(CC(=O)O)CCN(CC(=O)O)CC1)[C@@H](C)O)C(=O)N[C@H]1CSSC[C@@H](C(=O)N[C@@H](Cc2c[nH]c3ccccc23)C(=O)N2C[C@@H](O)C[C@H]2C(N)=O)NC(=O)[C@H](CC(=O)O)NC(=O)[C@H](Cc2cnc[nH]2)NC(=O)[C@H](Cc2c[nH]c3ccccc23)NC(=O)[C@H](CC(N)=O)NC(=O)[C@H](CC(N)=O)NC1=O` [compound 69, DOTA-Ahx-W-T-I-C(3)-N-N-W-H-D-C(3)-W-(cis4OH-P)-CONH2] ({DOTA-Ahx}-WTICNNWHDCW[cisHyp]-NH2; disulfide 4-10) showed a Kd of 0.1 to 0.3 µM.
